Source: ChEMBL document CHEMBL1153303, “Iodine-catalyzed one-pot synthesis and antimalarial activity evaluation of symmetrically and asymmetrically substituted 3,6-diphenyl[1,2,4,5]tetraoxanes” (Bioorg Med Chem Lett, 2009)

Tests used:
[1] = Selectivity index, ratio of IC50 for african green monkey (Cercopithecus aethiops) Vero cells to IC50 for Plasmodium falciparum W2; assay type: toxicity, cell-based; settings: read-out: Ratio IC50
[2] = Selectivity index, ratio of IC50 for african green monkey (Cercopithecus aethiops) Vero cells to IC50 for Plasmodium falciparum D6; assay type: toxicity, cell-based; settings: read-out: Ratio IC50
[3] = system: Vero; experiment: Cytotoxicity against african green monkey Vero cells up to 16.72 uM after 72 hrs by neutral red assay; assay type: cell-based; settings: chlorocebus sabaeus
[4] = system: Plasmodium falciparum; experiment: Antimalarial activity against chloroquine-resistant Plasmodium falciparum W2 in erythrocytes after 72 hrs by LDH activity; assay type: functional, organism-based; settings: W2, 72 h
[5] = system: Plasmodium falciparum; experiment: Antimalarial activity against chloroquine-sensitive Plasmodium falciparum D6 in erythrocytes after 72 hrs by LDH activity; assay type: functional, organism-based; settings: D6, 72 h

Compound	selectivity ratio [1]	selectivity ratio [2]	Activity [3]	IC50 [4] [nM]	IC50 [5] [nM]
Cc1ccc(C2OOC(c3ccc(C(C)(C)C)cc3)OO2)cc1 (stereo not drawn)	> 19	> 25.1	Non-toxic		
CC(C)(C)c1ccc(C2OOC(c3ccc(C(C)(C)C)cc3)OO2)cc1 (stereo not drawn)	> 3.4	> 6.1	Non-toxic		
CCCCc1ccc(C2OOC(c3ccc(CCCC)cc3)OO2)cc1 (stereo not drawn)	> 2.8	> 3.7	Non-toxic		
COC(=O)c1ccc(C2OOC(c3ccc(C)cc3)OO2)cc1 (stereo not drawn)	> 2.5	> 4	Non-toxic	6010	3790
C[C@@H]1CC[C@H]2[C@@H](C)C(=O)O[C@@H]3O[C@@]4(C)CC[C@@H]1[C@]32OO4 [ARTEMISININ]	> 1400	> 476	Non-toxic	15	
CCCc1ccc(C2OOC(c3ccc(CCC)cc3)OO2)cc1 (stereo not drawn)	> 19	> 23.8	Non-toxic		
CC(C)c1ccc(C2OOC(c3ccc(C(C)C)cc3)OO2)cc1 (stereo not drawn)	> 14	> 21.6	Non-toxic		
COc1ccc(C2OOC(c3ccc(C)cc3)OO2)cc1 (stereo not drawn)	> 15.4	> 21.6	Non-toxic		
CCc1ccc(C2OOC(c3ccc(C)cc3)OO2)cc1 (stereo not drawn)	> 36.7	> 43.6	Non-toxic		
CCN(CC)CCCC(C)Nc1ccnc2cc(Cl)ccc12 (stereo not drawn) [CHLOROQUINE]			Non-toxic		
Cc1ccc(C2OOC(c3ccc(C(C)C)cc3)OO2)cc1 (stereo not drawn)	> 20.7	> 26.4	Non-toxic		
CCc1ccc(C2OOC(c3ccc(CC)cc3)OO2)cc1 (stereo not drawn)	> 15.9	> 15.9	Non-toxic		990
